Reference: patent publication US9675625B2, “Medicament comprising recombinant antibody against chemokine receptor CCR4” (KYOWA HAKKO KIRIN CO., LTD., priority 2003, dated 2017)
Where “and” joins values, the source holds several entries; their conditions need not be identical. Equal values may be shown once.

Key:
[1] = test system: CCR4/EL4 cells; assay: antitumor effect of KM 2760 and IFN-α in combination, CCR4/EL4 cells grafted into tail vein of C57BL/6 mice, liver weight ratio; format: in vivo, C57BL/6 mouse
Method: CCR4/EL4 cells were suspended in RPMI 1640 medium (manufactured by Gibco BRL) at a concentration of 5×10^5 cells/mL, and 100 μl of the suspension was grafted into the tail vein of C57BL/6 mice (CLEA Japan Inc., male, 8 weeks old). Further, mice were grouped into A to D, and each of the agents A to D were administered to the mice. Incidentally, the day on which the tumor was grafted was defined as Day 0.
B. Group of administering IFN-α alone: 5×10^4 units of IFN-α (Universal type I interferon, manufactured by PBL Biomedical Laboratories) was intravenously administered per mouse once a day for 5 days from Day 1 to Day 5.
The experiment was conducted with group A consisting of 7 mice and groups B, C and D each consisting of 6 mice. […] The weight of all mice was measured on Day 14. After etherization and exsanguination, mice were brought to euthanasia by dislocation of the cervical spine. The liver was extracted, and the weight of the liver was then measured. A ratio of the liver weight to the weight of each individual (hereinafter referred to as a weight ration of a liver) was calculated by percentage.
The antitumor effect was evaluated by comparing the liver weight ratio (average value of six mice) of untreated healthy mice measured simultaneously and the liver weight ratio of each group increased by metastasis of tumor cells.
Further, the residual amount of tumor cells in the liver in each group was calculated as a T/C value using the following formula. T/C=(average values of a weight ration of a liver of each group−average value of a weight ration of a liver of an untreated mouse)/(average value of a weight ration of a liver of a negative control group−average value of a weight ration of a liver of an untreated mouse) (Formula 4)

[2] = test system: CCRF-CEM cells; assay: antitumor effect of KM 2760 and etoposide in combination, CCRF-CEM cells grafted in nude mouse; format: in vivo, Balb/c nude mouse; conditions: Day 7; KM 2760 800 μg per mouse Day 0 and Day 4; VP-16 10 mg/kg Day 0 to Day 4; tail vein
Method: (§1) CCRF-CEM cells (human T cell leukemia cell line) were suspended in RPMI 1640 medium (Gibco BRL) at a concentration of 2×10^8 cells/mL, and 100 μL of the suspension was grafted into the ventral skin of Balb/c nude mice (Nippon Crea, male). On Day 17 after the cell grafting, a diameter of a tumor was measured with calipers, and a tumor volume was calculated using formula 2 in Example 2.
Individuals having the tumor volume within the range of from 121 to 348 mm^3 (on average 195 mm^3) were selected, and grouped such that the average tumor volume to be almost the same. Each of the following agents A to D was then administered to the mice. Incidentally, the grouping day was defined as Day 0.
(§2) B. Group of administering KM 2760 alone: 800 μg of KM2760 was administered per mouse on Day 0 and Day 4.
C. Group of administering etoposide (hereinafter referred to as VP-16; Lastet injection, Nippon Kayaku Co., Ltd.) alone: 10 mg/kg of VP-16 was administered per mouse for 5 days from Day 0 to Day 4. […]
The experiment was conducted with groups each consisting of five mice. […] On Day 7, the tumor volume was measured. The antitumor effect was evaluated by comparing average values of a tumor volume change (V/V0) on Day 7 when the tumor volume on Day 0 in each group was defined as V0.

[3] = test system: CCRF-CEM cells; assay: antitumor effect of KM 2760 and vincristine in combination, CCRF-CEM cells grafted in nude mouse; format: in vivo, Balb/c nude mouse; conditions: Day 10; KM 2760 800 μg per mouse Day 0 and Day 4; VCR 0.55 mg/kg Day 0; tail vein
[4] = test system: CCRF-CEM cells; assay: antitumor effect of KM 2760 and Methotrexate in combination, CCRF-CEM cells grafted in nude mouse; format: in vivo, Balb/c nude mouse; conditions: Day 7; KM 2760 800 μg per mouse Day 0 and Day 4; MTX 15 mg/kg Day 0 to Day 4; tail vein
Method: as §1, with “(CLEA Japan Inc.” for “(Nippon Crea,”
Individuals having the tumor volume within the range of 121 to 348 mm^3 (on average 195 mm^3) were selected, and grouped such that the average tumor volume to be almost the same. Each of the following agents A to D was administered to the mice. Incidentally, the grouping day was defined as Day 0.
as §2
C. Group of administering Methotrexate (hereinafter referred to as MTX; Methotrexate injection solution, Nippon Weisledary K.K.) alone: 15 mg/kg of MTX was administered per mouse for 5 days from Day 0 to Day 4. […]
The experiment was conducted with groups each consisting of five mice. […] On Day 7, the tumor volume was measured. The antitumor effect was evaluated by comparing average values of a tumor volume change (V/V0) when the tumor volume on Day 0 in each group was defined as V0.

[5] = test system: CCRF-CEM cells; assay: antitumor effect of KM 2760 and cyclophosphamide in combination, CCRF-CEM cells grafted in nude mouse; format: in vivo, Balb/c nude mouse; conditions: Day 4; KM 2760 800 μg per mouse Day 0 and Day 4; CPA 65 mg/kg Day 0; tail vein
Method: CCRF-CEM cells (human T cell leukemia cell line) were suspended in RPMI 1640 medium (Gibco BRL) at a concentration of 2×10^8 cells/mL, and 100 μL of the suspension was grafted intradermally in the right flank of Balb/c nude mice (Nippon Crea, male). On Day 18 after the cell grafting, a diameter of a tumor was measured with calipers, and a tumor volume was calculated using formula 2 in Example 2.
Individuals having the tumor volume within the range of 116 to 349 mm^3 (on average 219 mm^3) were selected, and grouped such that the average tumor volume to be almost the same. Each of the following agent A to D was administered to the mice. Incidentally, the grouping day was defined as Day 0.
The experiment was conducted with groups each consisting of five mice. Each of the agents was diluted with a physiological saline (Otsuka Seiyaku), and the diluent was administered from the tail vein. On Day 4, the tumor volume was measured. The antitumor effect was evaluated by comparing an average values of a tumor volume change (V/V0) on each measurement day when the tumor volume on Day 0 in each group was defined as V0.

[6] = test system: CCR4/EL4 cells; assay: antitumor effect of KM 2760 and G-CSF in combination, CCR4/EL4 cells grafted into ventral skin of C57BL/6 mice; format: in vivo, C57BL/6 mouse
Method: CCR4/EL4 cells (WO 01/64754) were suspended, in RPMI 1640 medium (Gibco BRL) at a concentration of 1×10^6 cells/mL, and 100 μL of the suspension was grafted into the right ventral skin of C57BL/6 mice (Nippon Crea, male, 8 weeks old). After, mice were grouped into A to D, each of the agents A to D were administered to each mouse. Incidentally, the day on which the tumor was grafted was defined as Day 0.
B. Group of administering KM 2760 alone: 100 μg of KM2760 was intravenously administered per mouse on Day 0 and Day 4.
C. Group of administering G-CSF alone: 10 μg of G-CSF (Neuup Injection 100, manufactured by Kyowa Hakko Kogyo Co., Ltd.) was subcutaneously administered per mouse once a day for 10 days from 4 days before the tumor grafting (hereinafter referred to as Day-4) to Day 5.
The experiment was conducted with group A consisting of 10 mice and groups B, C and D each consisting of 7 mice. […] Each of the diluent was administered at 100 μL. A diameter of a tumor was measured with calipers chronologically from Day 0 of each group. A tumor volume was calculated using formula 2 in Example 2.
Since the tumor death of the mouse was started in group A from Day 17 on, the evaluation of the tumor volume was finished on Day 14.
The antitumor effect (T/C value) in each group was evaluated by calculation using the following formula 3 for comparison between the average value of the tumor volume in group A and the average values of the tumor volume in each group on the final evaluation day (Day 14). (T/C value)=(average value of tumor volume in each group on Day 14)/average value of tumor volume in group A on Day 14) (Formula 3)

[7] = test system: CCR4/EL4 cells
Method: CCR4/EL4 cells (WO 01/64754) were suspended in RPMI 1640 medium (manufactured by Gibco BRL) at a concentration of 1×10^5 cells/mL, and 200 μL of the suspension was grafted into the peritoneal cavity of C57BL/6 mice (CLEA Japan Inc., male, 8 weeks old). After, mice was grouped into A to D, and each of the agents A to D was administered to each mouse. The day on which the tumor was grafted was defined as Day 0.
B. Group of administering M-CSF alone: 100 μg of M-CSF (Leucoprol, manufactured by Kyowa Hakko Kogyo Co., Ltd.) was intraperitoneally administered per mouse twice a day from Day-3 to Day-1 and once a day on Day 0, seven times in total.
The experiment was conducted with groups each consisting of 8 mice. […] The antitumor effect was evaluated by a ratio of average values of the number of survival days of mice in each group to an average value of the number of survival days of mice in the negative control group (hereinafter referred to as a life prolongation ratio).

[8] = KM 2760 50 μg i.p. Day 0, M-CSF 100 μg i.p. seven times

Molecule: IFN-α
- T/C value (residual amount of tumor cells in the liver, from liver weight ratio) ([1]; Day 14, KM 2760 0.5 μg per mouse i.v. Day 1 and Day 5, IFN-α 5×10^4 units per mouse i.v. Day 1 to Day 5): 0.48
- antitumor effect compared to untreated group A (liver weight ratio) ([1]; FIG. 7, Day 14): low

Molecule: COc1cc([C@@H]2c3cc4c(cc3[C@@H](O[C@@H]3O[C@@H]5CO[C@@H](C)O[C@H]5[C@H](O)[C@H]3O)[C@H]3COC(=O)[C@H]23)OCO4)cc(OC)c1O [VP-16, etoposide, reference compound]
- T/C (V/V0 of group divided by V/V0 of negative control group) [2]: 0.71

Molecule: CC[C@]1(O)C[C@H]2CN(CCc3c([nH]c4ccccc34)[C@@](C(=O)OC)(c3cc4c(cc3OC)N(C=O)[C@H]3[C@@](O)(C(=O)OC)[C@H](OC(C)=O)[C@]5(CC)C=CCN6CC[C@]43[C@@H]65)C2)C1 [VCR, vincristine, reference compound]
- T/C (V/V0 of group divided by V/V0 of negative control group) [3]: 0.49

Molecule: CN(Cc1cnc2nc(N)nc(N)c2n1)c1ccc(C(=O)N[C@@H](CCC(=O)O)C(=O)O)cc1 [MTX, Methotrexate, reference compound]
- T/C (V/V0 of group divided by V/V0 of negative control group) [4]: 0.06

Molecule: O=P1(N(CCCl)CCCl)NCCCO1 (stereo not drawn) [CPA, cyclophosphamide, reference compound]
- T/C (V/V0 of group divided by V/V0 of negative control group) [5]: 0.48

B1: G-CSF: G-CSF (Neuup Injection 100, manufactured by Kyowa Hakko Kogyo Co., Ltd.) (protein, UniProt P09919 31-207, looked up)
Granulocyte …: TPLGPASSLPQSFLLKCLEQVRKIQGDGAALQEKLVSECATYKLCHPEELVLLGHSLGIPWAPLSSCPSQALQLAGCLSQLHSGLFLYQGLLQALEGISPELGPTLDTLQLDVADFATTIWQQMEELGMAPALQPTQGAMPAFASAFQRRAGGVLVASHLQSFLEVSYRVLRHLAQP
modifications: nartograstim
- T/C value (average tumor volume of group / group A) ([6]; Day 14, KM 2760 100 μg per mouse i.v. Day 0 and Day 4, G-CSF 10 μg per mouse s.c. once a day Day-4 to Day 5): 0.63
- antitumor effect compared to untreated group A (tumor volume) ([6]; FIG. 6, up to Day 14): low

B2: M-CSF: M-CSF (Leucoprol, manufactured by Kyowa Hakko Kogyo Co., Ltd.) (protein, UniProt P09603 33-554, looked up)
Macrophage colony-stimulating …: EEVSEYCSHMIGSGHLQSLQRLIDSQMETSCQITFEFVDQEQLKDPVCYLKKAFLLVQDIMEDTMRFRDNTPNAIAIVQLQELSLRLKSCFTKDYEEHDKACVRTFYETPLQLLEKVKNVFNETKNLLDKDWNIFSKNCNNSFAECSSQDVVTKPDCNCLYPKAIPSSDPASVSPHQPLAPSMAPVAGLTWEDSEGTEGSSLLPGEQPLHTVDPGSAKQRPPRSTCQSFEPPETPVVKDSTIGGSPQPRPSVGAFNPGMEDILDSAMGTNWVPEEASGEASEIPVPQGTELSPSRPGGGSMQTEPARPSNFLSASSPLPASAKGQQPADVTGTALPRVGPVRPTGQDWNHTPQKTDHPSALLRDPPEPGSPRISSLRPQGLSNPSTLSAQPQLSRSHSSGSVLPLGELEGRRSTRDRRSPAEPEGGPASEGAARPLPRFNSVPLTDTGHERQSEGSFSPQLQESVFHLLVPSVILVLLAVGGLLFYRWRRRSHQEPQRADSPLEQPEGSPLTQDDRQVELPV
- Number of survival days (each mouse) ([7]; 8 mice per group, KM 2760 50 μg per mouse i.p. Day 0, M-CSF 100 μg per mouse i.p. seven times Day-3 to Day 0, observation to Day 50): 17 days (2×) and 18 days (3×) and 19 days (2×) and 22 days
- Average number of survival days [7, 8]: 18.8 days
- Life prolongation ratio (average survival days of group / negative control group) [7, 8]: 0.974
- antitumor effect in comparison with untreated Group A (survival) ([7]; Table 7): no antitumor effect
